# From patent US20240002467A1, “COMPOSITIONS AND METHODS OF INHIBITING THE BINDING OF PLASMA IGG AUTOANTIBODIES TO SEROTONIN 2A RECEPTOR” (UNITED STATES GOVERNMENT AS REPRESENTED BY THE DEPARTMENT …, priority 2020, published 2024)
# Values joined by “and” are separate entries in the source; they are usually repeats but may differ in a detail not shown here. Equal values may be shown once. “Also recorded” adds a separate entry of the source. Ends that are not written are not given here.
# Legend:
# [1] = cited from earlier work
# [2] = system: Zucker diabetic fatty rats; details: ZDF rats treated 6 months, cited from earlier work
# [3] = system: Zucker diabetic fatty rats; assay: Observation of side effects / tolerability in ZDF rats
# [4] = once-daily valsartan 160 mg; cited from earlier work
# [5] = system: male Zucker diabetic fatty rats; assay: Tail cuff blood pressure in male ZDF rats after IP peptide; assay type: in vivo, rat; parameters: systolic blood pressure within 15 minutes of administration: unit not given here; details: for mean systolic blood pressure, baseline: 8.5-week-old male ZDF rats before single IP: pegylated 1 mg/kg (n=3), scrambled 2 mg/kg (n=4); for Estimate: difference in mean diastolic blood pressure vs scrambled decoy peptide 2 (time series analysis) / Estimate: difference in mean systolic blood pressure vs scrambled decoy peptide 2 (time series analysis): pegylated 1 mg/kg IP vs scrambled 2 mg/kg IP (reference = 0)
# Experimental: Animals. Male ZDF and lean (+/?) Zucker rats were obtained from Charles River Laboratories (Kingston, NY) at approximately 6-7 weeks of age. The rats were single housed upon arrival, without enrichment. Rats were acclimatized for two weeks prior to experimental procedures. Rats were provided ad libitum access to food and water and maintained in a 12 h light/dark cycle with lights on at 0630. The procedures occurred during the light phase of the cycle. Blood pressure testing (following acute or chronic administration of the decoy peptides) was conducted in three separate cohorts of animals.
# Cohort 1: Three 25-week-old male ZDF and three, age-matched, male Zucker lean rats (ZLR) treated with IP decoy peptide 2 (ZDF) vs saline (vehicle) (ZLR).
# Cohort 2: Eleven-week old male ZDF (n=5) and Zucker lean rats (n=4) treated with IP decoy peptide 2.
# Cohort 3: Twelve 8.5-week old male Zucker diabetic fatty rats were randomly assigned to one of three treatment groups (n=4/group). The rats underwent baseline blood pressure determinations using tail-cuff plethysmography technique. Next, the animals who expressed baseline hypertension, i.e., blood pressure >135/85, received either a 1 mg/kg intraperitoneal injection of pegylated decoy peptide 2 (n=3); a 2 mg/kg intraperitoneal dose of a scrambled decoy peptide 2 (n=4); or vehicle (i.e., sterile saline) (N=4). Blood pressure was determined at 15 minutes, 45 minutes, 4 hours, 8 hours, 24 hours, 30 and 48 hours following single IP injection. One week later, the same two groups of ZDF rats received either 0.75 mg/kg IP pegylated decoy peptide 2, 2 mg/kg scrambled decoy peptide 2, or sterile saline; and blood pressure was determined at similar timepoints. Two weeks later, two groups of 12-week-old ZDF rats (n=6/group) including those that had previously received acute peglyated decoy peptide 2 or scrambled decoy peptide 2 were treated on an alternative daily schedule with IP, free decoy peptide 2 (2 mg/kg) vs IP scrambled decoy peptide 2 (2 mg/kg) continuously for 13 weeks until sacrifice at 25 weeks of age. Body weight was determined immediately before sacrifice and after perfusion; and hearts were excised and weighed for determination of the heart-to-(perfused) body weight ratio.
# Blood pressure monitoring. Tail cuff blood pressure measurement was performed using an automated CODA noninvasive blood pressure system (Kent Scientific, Torrington, CT). Rats were placed on an insulated warming platform in a well-heated room to ensure proper body temperature. Cuff monitors were provided in different sizes to accommodate rats of different ages and having different body weights. After the animal was positioned in the clear plastic restraint holder, the appropriate-sized cuff was slid over the rat's tail.
# Statistical Analysis. Comparisons were made using Student's unpaired t-test (Tables 3-6, 9 and FIG. 18) or time series analysis (Tables 7, 8, FIG. 16).
# Blood pressure monitoring. Tail cuff blood pressure measurement was performed using an automated CODA noninvasive blood pressure system (Kent Scientific, Torrington, CT.). Rats were placed on an insulated warming platform in a well-heated room to ensure proper body temperature. Cuff monitors were provided in different sizes to accommodate rats of different ages and having different body weights. After the animal was positioned in the clear plastic restraint holder, the appropriate-sized cuff was slid over the rat's tail.
# Experiment 1: Four 12-week-old male ZDF rats were randomly assigned to receive either a single IP injection of a scrambled sequence (SEQ ID NO: 7) of Peptide ID #2 (SEQ ID NO: 2) at 1 mg/kg concentration or a 1 mg/kg concentration of myristolated Peptide ID #2 (SEQ ID NO: 9). Blood pressure was determined using tail cuff plethysmography (Kent Scientific) at 1, 4, 6, 48 and 72 hours post-injection.
# Experiment 2: Six 12-week-old male ZDF rats were assigned to each of three treatment groups (N=2/group). […]
# [6] = system: Zucker diabetic fatty rats; details: rat, in vivo
# [7] = system: Zucker diabetic fatty rats; assay: Plasma hepatic transaminases (AST, ALT) after chronic IP treatment of ZDF rats; assay type: in vivo, rat; details: 2 mg/kg IP alternate daily weeks 10-16, blood at week 16, vs saline
# Experimental: Two groups of Zucker diabetic fatty rats (N=4 each) were treated with alternate daily intraperitoneal dose (IP) of either a composition comprising decoy peptide 2 (SEQ ID NO: 2) (2 mg/kg) or an equal volume of sterile saline (vehicle) for […] (between weeks 10-16). Blood was obtained at week 16 for determination of plasma hepatic transaminases (AST, ALT) and plasma triglycerides.
# [8] = 8.5-week-old male ZDF rats, single IP: pegylated 1 mg/kg, scrambled 2 mg/kg
# [9] = ZDF rats, before pegylated 0.75 mg/kg IP
# [10] = ZDF rats, pegylated 0.75 mg/kg single IP
# [11] = ZDF rats, listed as Peg decoy peptide 2
# [12] = ZDF rats, pegylated 1 mg/kg single IP
compound,measurement,setting,value
CC/C=C\C/C=C\C/C=C\C/C=C\C/C=C\CCCC(=O)O [EPA],HR for cardiovascular events,[1]; REDUCE-IT,0.75
same,"reduction in occurrences of cardiovascular death, nonfatal heart attack, nonfatal stroke, coronary stenting or bypass or unstable angina",[1]; REDUCE-IT,25%
same,reduction of plasma triglyceride level,"[1]; humans, chronic treatment, REDUCE-IT after 1 year",18% and 18.3%
CN(C)C(=N)N=C(N)N [metformin],"serum ALT, times higher than upper limit of normal",[2]; both groups,more than 3 times
same,serum ALT,[2]; metformin or vehicle (both groups),~142 IU/L
"CC(C)C[C@H](NC(=O)[C@H](CS)NC(=O)[C@H](CC(=O)O)NC(=O)[C@H](CC(N)=O)NC(=O)[C@H](CO)NC(=O)[C@H](C)NC(=O)[C@@H](N)CC(C)C)C(=O)N[C@@H](CC(=O)O)C(=O)O [scrambled decoy peptide 2, reference compound]",untoward physical or behavioral effect,"[3]; ten ZDF rats (Expt 1 and 2), up to 14-21 days after single IP",None of the ten rats tested (N=4 in Expt 1; N=6 in Expt 2) experienced any untoward physical or behavioral effect
CCCCC(=O)N(Cc1ccc(-c2ccccc2-c2nnn[nH]2)cc1)[C@H](C(=O)O)C(C)C [valsartan],"systolic blood pressure-lowering effect after 24 hours, in words",[4],no significant systolic blood pressure-lowering effect
K(DBCO-DSPE-PEG2K)-SCLLADDN (not fully specified; Lys-DBCO-DSPE-PEG2000 conjugate; MOD_RES (1)..(1) Lys(Azide)) [pegylated decoy peptide 2],"mean systolic blood pressure, baseline",[5],155 mm Hg
same,"mean systolic blood pressure, baseline",[5]; listed as Pegylated decoy peptide 2,155+/−12 mm Hg
same,"mean diastolic blood pressure, baseline","[5]; 8.5-week-old male ZDF rats before single IP: pegylated 1 mg/kg, scrambled 2 mg/kg",105+/−8 mm Hg
same,mean diastolic blood pressure 45 minutes post-injection,[5]; [8],92+/−11 mm Hg
same,mean systolic blood pressure 45 minutes post-injection,[5]; [8],122+/−5 mm Hg
same,"diastolic blood pressure, baseline",[5]; [9],108 mm Hg
same,"systolic blood pressure, baseline",[5]; [9],154 mm Hg
same,diastolic blood pressure 30 hours post injection,[5]; [10],80 mm Hg
same,diastolic blood pressure at 45 minutes post-injection,[5]; [10],80 mm Hg
same,diastolic blood pressure lowering at 45 minutes post-injection,[5]; [10],19%
same,reduction of systolic blood pressure at 45 minutes post-injection,[5]; [10],17%
same,reduction of systolic blood pressure between 24-30 hours after injection,[5]; [10],14-19%
same,systolic blood pressure at 45 minutes post-injection,[5]; [10],128 mm Hg
same,time at which diastolic blood pressure recovered to baseline,[5]; [10],48 h
same,time at which systolic blood pressure recovered to baseline,[5]; [10],48 h
same,Estimate: difference in mean diastolic blood pressure vs scrambled decoy peptide 2 (time series analysis),[5]; ZDF rats,−9.8 mm Hg
same,Estimate: difference in mean systolic blood pressure vs scrambled decoy peptide 2 (time series analysis),[5]; ZDF rats,−8.9 mm Hg
same,Estimate: difference in mean diastolic blood pressure vs scrambled decoy peptide 2 (time series analysis),[5]; [11],−9.7771 mm Hg
same,Estimate: difference in mean systolic blood pressure vs scrambled decoy peptide 2 (time series analysis),[5]; [11],−8.9162 mm Hg
same,change of systolic blood pressure within 15 minutes vs baseline,[5]; [12],−28%
same,diastolic blood pressure lower than baseline at 30 hours post injection,[5]; [12],34%
same,"maximum reduction of diastolic blood pressure, 8 hours after injection",[5]; [12],36%
same,reduction of diastolic blood pressure at 4 hours post-injection,[5]; [12],20%
same,systolic blood pressure within 15 minutes of administration,[5]; [12],111
same,time after which systolic blood pressure had returned to baseline,[5]; [12],48 h
same,"dose dependence of systolic and diastolic blood pressure lowering, in words","[5]; ZDF rats, single IP 0.75 to 1 mg/kg","significant, dose-dependent systolic and diastolic blood pressure lowering effects; also recorded: significant, dose-dependent, long-lasting systolic and diastolic blood pressure-lowering effect"
same,"effect on diastolic blood pressure, in words","[5]; ZDF rats, single IP: pegylated 1 mg/kg, scrambled 2 mg/kg",trend of significant acute decline in diastolic blood pressure
same,sustained reductions in systolic and diastolic blood pressure 30 hours after administration,"[5]; male ZDF rat, pegylated 1 mg/kg",25-26%
same,tolerability after the initial dose,[6],no sedation or hypotension was observed after the initial dose
SCLLADDN [decoy peptide 2],mean plasma AST,[7],did not differ significantly; also recorded: not associated with significant increase in AST
same,side effects of acute blood pressure-lowering,"[3]; 11-week-old male ZDF rats (N=5), 2 mg/kg IP",none of the five male ZDF rats experienced any untoward side effects including hypotension or acute sedation
same,acute side effects after first dose,"[3]; 25-week-old male ZDF rats, 2 mg/kg IP, two of three rats, resolved spontaneously",sedation and borderline hypotension
same,side effects after repeat drug exposure,"[3]; 25-week-old male ZDF rats, up to 18 days after repeat 2 mg/kg IP",no untoward acute or long-term side effects
same,long-term side effects after chronic administration,"[3]; ZDF rats, chronic (10 weeks) administration",No untoward long-term side effects were observed
same,safety and tolerability of alternate daily dosing,"[3]; obese Zucker rats, 2 mg/kg alternate daily","safe, well-tolerated"
